# Experimental data: US11993599B2, “Therapeutic compounds” (Genentech, Inc., priority 2021, dated 2024)
# Legend:
# BRM = BRM (Homo sapiens, UniProt P51531); experiment: Immunofluorescence assay for BRM degradation in SW1573 cells; assay type: cell-based; parameters: treated overnight at 4° C. with either BRM primary antibody (Cell signaling Cat #11966) or BRG primary antibody; endogenous in cells; host or cells: SW1573; conditions: 20 hours incubation; for DC50: immunofluorescence mean nuclear signal, read-out: BRM IF Degradation IC50; for BRM IF Degradation Sinf (%): normalized to a known degrader control
# Sequence of BRM (P51531 whole entry): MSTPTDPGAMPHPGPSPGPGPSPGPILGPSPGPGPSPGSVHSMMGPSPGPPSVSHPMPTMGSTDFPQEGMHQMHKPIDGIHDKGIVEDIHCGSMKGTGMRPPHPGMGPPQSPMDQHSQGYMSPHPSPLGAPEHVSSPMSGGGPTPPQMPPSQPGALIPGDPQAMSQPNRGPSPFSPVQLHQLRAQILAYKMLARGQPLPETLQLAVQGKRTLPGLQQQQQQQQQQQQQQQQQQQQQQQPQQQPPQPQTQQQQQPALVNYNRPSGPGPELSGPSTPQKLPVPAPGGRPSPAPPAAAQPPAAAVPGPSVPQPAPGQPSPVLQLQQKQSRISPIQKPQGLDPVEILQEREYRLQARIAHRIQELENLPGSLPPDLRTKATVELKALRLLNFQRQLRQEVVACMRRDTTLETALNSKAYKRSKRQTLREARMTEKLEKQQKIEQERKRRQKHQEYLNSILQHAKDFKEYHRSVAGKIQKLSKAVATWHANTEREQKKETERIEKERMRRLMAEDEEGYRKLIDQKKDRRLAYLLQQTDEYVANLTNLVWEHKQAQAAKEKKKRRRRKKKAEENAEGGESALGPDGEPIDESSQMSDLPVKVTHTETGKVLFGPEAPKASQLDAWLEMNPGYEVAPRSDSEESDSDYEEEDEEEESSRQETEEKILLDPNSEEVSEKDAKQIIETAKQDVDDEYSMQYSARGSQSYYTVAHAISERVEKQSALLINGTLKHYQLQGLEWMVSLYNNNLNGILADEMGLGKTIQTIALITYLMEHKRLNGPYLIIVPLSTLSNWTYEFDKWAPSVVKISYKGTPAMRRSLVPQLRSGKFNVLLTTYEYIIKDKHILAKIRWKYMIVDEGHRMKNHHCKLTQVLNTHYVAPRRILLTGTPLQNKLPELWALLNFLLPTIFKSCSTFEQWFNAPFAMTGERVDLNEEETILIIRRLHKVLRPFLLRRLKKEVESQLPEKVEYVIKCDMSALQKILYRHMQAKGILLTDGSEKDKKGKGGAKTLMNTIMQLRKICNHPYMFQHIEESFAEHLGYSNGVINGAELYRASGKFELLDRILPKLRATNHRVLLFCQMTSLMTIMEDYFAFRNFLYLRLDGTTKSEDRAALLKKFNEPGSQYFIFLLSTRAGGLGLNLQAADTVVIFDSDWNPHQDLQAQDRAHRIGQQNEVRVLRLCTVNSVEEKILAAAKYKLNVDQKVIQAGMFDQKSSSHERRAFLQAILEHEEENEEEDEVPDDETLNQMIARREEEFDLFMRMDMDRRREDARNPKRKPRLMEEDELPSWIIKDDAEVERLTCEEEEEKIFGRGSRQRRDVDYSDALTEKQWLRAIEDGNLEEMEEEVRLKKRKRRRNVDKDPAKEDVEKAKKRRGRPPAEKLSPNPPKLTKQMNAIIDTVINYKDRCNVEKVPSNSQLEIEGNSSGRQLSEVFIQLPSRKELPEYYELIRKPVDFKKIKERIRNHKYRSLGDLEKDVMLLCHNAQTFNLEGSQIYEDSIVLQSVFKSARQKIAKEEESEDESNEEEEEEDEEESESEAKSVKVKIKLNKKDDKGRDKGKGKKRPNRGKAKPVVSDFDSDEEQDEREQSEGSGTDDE
# Summary of the method: (§1)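 Imaging-based readout in SW1573: 20 h dosing, formaldehyde fixation, antibody staining for either remodeler, nuclear intensity per cell quantified. Values normalized to control degrader; floating-maximum fit.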
# BRG1 = biological target: T1, BRG1 (Homo sapiens, UniProt P51532); experiment: Immunofluorescence assay for BRG1 degradation in SW1573 cells; assay type: cell-based; conditions: 20 hours incubation; for DC50: immunofluorescence mean nuclear signal, read-out: BRG1 IF Degradation IC50; for Dmax: SW1573, 20 h, normalized to a known degrader control, read-out: BRG1 IF Degradation Sinf (%)
# T1 construct: either BRM primary antibody (Cell signaling Cat #11966) or BRG primary antibody (Abcam, ab 110641); endogenous in cells; host or cells: SW1573
# T1 sequence (P51532 whole entry): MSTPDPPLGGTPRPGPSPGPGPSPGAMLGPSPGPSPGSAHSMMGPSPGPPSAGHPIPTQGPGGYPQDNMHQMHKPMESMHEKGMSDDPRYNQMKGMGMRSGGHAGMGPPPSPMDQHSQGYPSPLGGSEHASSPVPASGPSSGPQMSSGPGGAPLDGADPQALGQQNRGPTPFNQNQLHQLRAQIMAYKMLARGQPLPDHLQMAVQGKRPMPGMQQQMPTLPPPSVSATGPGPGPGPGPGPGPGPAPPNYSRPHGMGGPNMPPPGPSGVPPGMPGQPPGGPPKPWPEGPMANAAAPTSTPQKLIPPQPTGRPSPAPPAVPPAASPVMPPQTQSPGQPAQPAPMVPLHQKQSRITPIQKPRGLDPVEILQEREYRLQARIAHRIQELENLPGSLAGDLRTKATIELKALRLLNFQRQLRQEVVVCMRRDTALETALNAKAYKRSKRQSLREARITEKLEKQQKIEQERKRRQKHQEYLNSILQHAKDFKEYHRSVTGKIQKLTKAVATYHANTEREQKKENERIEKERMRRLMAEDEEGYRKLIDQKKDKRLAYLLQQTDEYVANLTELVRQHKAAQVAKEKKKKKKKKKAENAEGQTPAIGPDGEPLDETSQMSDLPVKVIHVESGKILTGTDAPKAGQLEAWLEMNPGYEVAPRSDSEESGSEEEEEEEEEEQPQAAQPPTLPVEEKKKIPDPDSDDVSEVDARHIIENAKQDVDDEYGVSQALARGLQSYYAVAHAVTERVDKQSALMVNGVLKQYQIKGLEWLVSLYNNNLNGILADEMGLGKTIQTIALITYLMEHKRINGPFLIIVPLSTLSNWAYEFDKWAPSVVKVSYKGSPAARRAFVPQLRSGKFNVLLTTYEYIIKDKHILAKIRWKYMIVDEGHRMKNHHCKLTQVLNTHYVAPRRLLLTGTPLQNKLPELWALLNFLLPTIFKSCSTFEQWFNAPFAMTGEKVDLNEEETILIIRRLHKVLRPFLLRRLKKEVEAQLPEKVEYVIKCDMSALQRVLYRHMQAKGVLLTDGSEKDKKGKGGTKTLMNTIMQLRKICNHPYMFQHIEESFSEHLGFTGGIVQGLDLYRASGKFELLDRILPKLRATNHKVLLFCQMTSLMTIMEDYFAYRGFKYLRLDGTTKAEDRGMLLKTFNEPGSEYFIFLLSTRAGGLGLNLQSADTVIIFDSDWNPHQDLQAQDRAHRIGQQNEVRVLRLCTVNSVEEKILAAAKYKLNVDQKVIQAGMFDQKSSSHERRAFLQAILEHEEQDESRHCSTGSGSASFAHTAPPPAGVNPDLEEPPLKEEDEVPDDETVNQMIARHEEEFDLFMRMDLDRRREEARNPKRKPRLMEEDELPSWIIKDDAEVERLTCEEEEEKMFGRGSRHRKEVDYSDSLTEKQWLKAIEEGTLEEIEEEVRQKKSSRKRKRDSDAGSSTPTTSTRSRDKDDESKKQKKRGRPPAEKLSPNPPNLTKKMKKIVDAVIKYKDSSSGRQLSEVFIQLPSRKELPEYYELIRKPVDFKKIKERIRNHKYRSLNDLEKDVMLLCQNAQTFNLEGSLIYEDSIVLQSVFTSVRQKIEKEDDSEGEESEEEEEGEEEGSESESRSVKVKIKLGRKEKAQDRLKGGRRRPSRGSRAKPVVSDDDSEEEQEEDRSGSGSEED
# Summary of the method: as §1
smiles,measurement,setting,value
"C[C@H]1CCN(CC#Cc2cc(N3C4CCC3CN(c3cc(-c5ccccc5O)nnc3N)C4)ccn2)C1 [Compound 75, 2-(6-amino-5-(8-(2-(3-((S)-3-methylpyrrolidin-1-yl)prop-1-yn-1-yl)pyridin-4-yl)-3,8-diazabicyclo[3.2.1]octan-3-yl)pyridazin-3-yl)phenol]",DC50,BRM,< 0.01 µM
same,BRM IF Degradation Sinf (%),BRM,E (E indicates −30%-−70%)
same,DC50,BRG1,< 0.01 µM
same,Dmax,BRG1,30 to 70%
"Nc1nnc(-c2ccccc2O)cc1N1CC2CCC(C1)N2c1ccnc(C#CCN2CC3COCC3C2)c1 (stereo not shown) [Compound 76, 2-[5-[8-[2-[3-(1,3,3a,4,6,6a-hexahydrofuro[3,4-c]pyrrol-5-yl)prop-1-ynyl]-4-pyridyl]-3,8-diazabicyclo[3.2.1]octan-3-yl]-6-amino-pyridazin-3-yl]phenol]",DC50,BRM,< 0.01 µM
same,BRM IF Degradation Sinf (%),BRM,E (E indicates −30%-−70%)
same,DC50,BRG1,< 0.01 µM
same,Dmax,BRG1,0 to 30%
Nc1nnc(-c2ccccc2O)cc1N1CC2CCC(C1)N2c1ccnc(C#CCN2CCOC3(CCC3)C2)c1 [Compound 77],DC50,BRM,0.01 to 0.1 µM
same,BRM IF Degradation Sinf (%),BRM,E (E indicates −30%-−70%)
same,DC50,BRG1,> 0.1 µM
"Nc1nnc(-c2ccccc2O)cc1N1CC2CCC(C1)N2c1ccnc(C#CCN2CCC3CC[C@@H](O)C32)c1 (stereo partly drawn) [Compound 78, (6R)-1-[3-[4-[3-[3-amino-6-(2-hydroxyphenyl)pyridazin-4-yl]-3,8-diazabicyclo[3.2.1]octan-8-yl]-2-pyridyl]prop-2-ynyl]-3,3a,4,5,6,6a-hexahydro-2H-cyclopenta[b]pyrrol-6-ol]",DC50,BRM,< 0.01 µM
same,BRM IF Degradation Sinf (%),BRM,E (E indicates −30%-−70%)
same,DC50,BRG1,> 0.1 µM
"CC1CN(CC#Cc2cc(N3C4CCC3CN(c3cc(-c5ccccc5O)nnc3N)C4)ccn2)CC(C)O1 (stereo not shown) [Compound 79, 2-[6-amino-5-[8-[2-[3-(2,6-dimethylmorpholin-4-yl)prop-1-ynyl]-4-pyridyl]-3,8-diazabicyclo[3.2.1]octan-3-yl]pyridazin-3-yl]phenol]",DC50,BRM,0.01 to 0.1 µM
same,BRM IF Degradation Sinf (%),BRM,E (E indicates −30%-−70%)
same,DC50,BRG1,> 0.1 µM
"Nc1nnc(-c2ccccc2O)cc1N1CC2CCC(C1)N2c1ccnc(C#CCN2CCC(N3CCOCC3)C2)c1 (stereo not shown) [Compound 80, 2-[6-amino-5-[8-[2-[3-(3-morpholinopyrrolidin-1-yl)prop-1-ynyl]-4-pyridyl]-3,8-diazabicyclo[3.2.1]octan-3-yl]pyridazin-3-yl]phenol]",DC50,BRM,0.01 to 0.1 µM
same,BRM IF Degradation Sinf (%),BRM,E (E indicates −30%-−70%)
same,DC50,BRG1,< 0.01 µM
same,Dmax,BRG1,0 to 30%
"Nc1nnc(-c2ccccc2O)cc1N1CC2CCC(C1)N2c1ccnc(C#CCN2CC3CCOC3C2)c1 (stereo not shown) [Compound 81, 2-[5-[8-[2-[3-(2,3,3a,4,6,6a-hexahydrofuro[2,3-c]pyrrol-5-yl)prop-1-ynyl]-4-pyridyl]-3,8-diazabicyclo[3.2.1]octan-3-yl]-6-amino-pyridazin-3-yl]phenol]",DC50,BRM,< 0.01 µM
same,BRM IF Degradation Sinf (%),BRM,E (E indicates −30%-−70%)
same,DC50,BRG1,< 0.01 µM
same,Dmax,BRG1,30 to 70%
"COC1C2CCC1N(CC#Cc1cc(N3C4CCC3CN(c3cc(-c5ccccc5O)nnc3N)C4)ccn1)C2 (stereo not shown) [Compound 82, 2-[6-amino-5-[8-[2-[3-(7-methoxy-2-azabicyclo[2.2.1]heptan-2-yl)prop-1-ynyl]-4-pyridyl]-3,8-diazabicyclo[3.2.1]octan-3-yl]pyridazin-3-yl]phenol]",DC50,BRM,< 0.01 µM
same,BRM IF Degradation Sinf (%),BRM,E (E indicates −30%-−70%)
same,DC50,BRG1,< 0.01 µM
same,Dmax,BRG1,30 to 70%
"Nc1nnc(-c2ccccc2O)cc1N1CC2CCC(C1)N2c1ccnc(C#CCN2CC3COCC(C2)C3O)c1 (stereo not shown) [Compound 83, 7-[3-[4-[3-[3-amino-6-(2-hydroxyphenyl)pyridazin-4-yl]-3,8-diazabicyclo[3.2.1]octan-8-yl]-2-pyridyl]prop-2-ynyl]-3-oxa-7-azabicyclo[3.3.1]nonan-9-ol]",DC50,BRM,> 0.1 µM
same,BRM IF Degradation Sinf (%),BRM,E (E indicates −30%-−70%)
same,DC50,BRG1,0.01 to 0.1 µM
same,Dmax,BRG1,30 to 70%
"Nc1nnc(-c2ccccc2O)cc1N1CC2CCC(C1)N2c1ccnc(C#CCN2CCC3(C2)CC3(F)F)c1 (stereo not shown) [Compound 84, 2-[6-amino-5-[8-[2-[3-(2,2-difluoro-5-azaspiro[2.4]heptan-5-yl)prop-1-ynyl]-4-pyridyl]-3,8-diazabicyclo[3.2.1]octan-3-yl]pyridazin-3-yl]phenol]",DC50,BRM,< 0.01 µM
same,BRM IF Degradation Sinf (%),BRM,E (E indicates −30%-−70%)
same,DC50,BRG1,> 0.1 µM
"CN(CC#Cc1cc(N2C3CCC2CN(c2cc(-c4ccccc4O)nnc2N)C3)ccn1)CC(=O)N1CCOCC1 [Compound 85, 2-[3-[4-[3-[3-amino-6-(2-hydroxyphenyl)pyridazin-4-yl]-3,8-diazabicyclo[3.2.1]octan-8-yl]-2-pyridyl]prop-2-ynyl-methyl-amino]-1-morpholino-ethanone]",DC50,BRM,> 0.1 µM
same,BRM IF Degradation Sinf (%),BRM,E (E indicates −30%-−70%)
same,DC50,BRG1,> 0.1 µM
"Nc1nnc(-c2ccccc2O)cc1N1CC2CCC(C1)N2c1ccnc(C#CCN2CC3CC2C3)c1 [Compound 86, 2-[6-amino-5-[8-[2-[3-(2-azabicyclo[2.1.1]hexan-2-yl)prop-1-ynyl]-4-pyridyl]-3,8-diazabicyclo[3.2.1]octan-3-yl]pyridazin-3-yl]phenol]",DC50,BRM,< 0.01 µM
same,BRM IF Degradation Sinf (%),BRM,E (E indicates −30%-−70%)
same,DC50,BRG1,< 0.01 µM
same,Dmax,BRG1,30 to 70%
"Nc1nnc(-c2ccccc2O)cc1N1CC2CCC(C1)N2c1ccnc(C#CCN2CCC3CC32)c1 (stereo not shown) [Compound 87, 2-[6-amino-5-[8-[2-[3-(2-azabicyclo[3.1.0]hexan-2-yl)prop-1-ynyl]-4-pyridyl]-3,8-diazabicyclo[3.2.1]octan-3-yl]pyridazin-3-yl]phenol]",DC50,BRM,< 0.01 µM
same,BRM IF Degradation Sinf (%),BRM,E (E indicates −30%-−70%)
same,DC50,BRG1,< 0.01 µM
same,Dmax,BRG1,30 to 70%
"Nc1nnc(-c2ccccc2O)cc1N1CC2CCC(C1)N2c1ccnc(C#CCN2CCC3COCC3C2)c1 (stereo not shown) [Compound 88, 2-[5-[8-[2-[3-(3,3a,4,6,7,7a-hexahydro-1H-furo[3,4-c]pyridin-5-yl)prop-1-ynyl]-4-pyridyl]-3,8-diazabicyclo[3.2.1]octan-3-yl]-6-amino-pyridazin-3-yl]phenol]",DC50,BRM,< 0.01 µM
same,BRM IF Degradation Sinf (%),BRM,E (E indicates −30%-−70%)
same,DC50,BRG1,< 0.01 µM
same,Dmax,BRG1,0 to 30%
"CNC(=O)C1COCCN1CC#Cc1cc(N2C3CCC2CN(c2cc(-c4ccccc4O)nnc2N)C3)ccn1 (stereo not shown) [Compound 89, 4-[3-[4-[3-[3-amino-6-(2-hydroxyphenyl)pyridazin-4-yl]-3,8-diazabicyclo[3.2.1]octan-8-yl]-2-pyridyl]prop-2-ynyl]-N-methyl-morpholine-3-carboxamide]",DC50,BRM,0.01 to 0.1 µM
same,BRM IF Degradation Sinf (%),BRM,E (E indicates −30%-−70%)
same,DC50,BRG1,> 0.1 µM
"Nc1nnc(-c2ccccc2O)cc1N1CC2CCC(C1)N2c1ccnc(C#CCN2CCC[C@@H]3OCC[C@@H]32)c1 [Compound 90, 2-[5-[8-[2-[3-[(3aS,7aS)-3,3a,5,6,7,7a-hexahydro-2H-furo[3,2-b]pyridin-4-yl]prop-1-ynyl]-4-pyridyl]-3,8-diazabicyclo[3.2.1]octan-3-yl]-6-amino-pyridazin-3-yl]phenol]",DC50,BRM,0.01 to 0.1 µM
same,BRM IF Degradation Sinf (%),BRM,E (E indicates −30%-−70%)
same,DC50,BRG1,0.01 to 0.1 µM
same,Dmax,BRG1,0 to 30%
